Assay results: patent US6995136B1, “Peptide fragments of murine epidermal growth factor as laminin receptor targets” (The Queen's University of Belfast, priority 1998, dated 2006)
Non-standard residues stand in square brackets, D forms with d. Residues, ends and D or L forms follow the SMILES beside them. No end group written: not given here. *: point of attachment. Tic‑OH = tetrahydroisoquinoline-3-carboxylic acid (hydroxy-substituted), constrained Tyr mimetic; Cit = NC(=O)NCCC[C@H](N)C(=O)O; Acm = CC(=O)NC*

How the values were obtained:
67-LR = target: T1, 67-LR (Homo sapiens, UniProt P08865); experiment: Peptide screening for receptor interaction, cell adhesion and motility properties; format: cell-based
T1 construct: endogenous in cells
Description: In addition, using residue exchange between the two peptides and molecular modelling to predict three-dimensional structure, we wished to further investigate the role of individual mEGF(33-42) residues in laminin antagonism. A logical series of peptides was synthesised and screened for receptor interaction, cell adhesion and motility properties (Table 1a and 1b).

[1] = system: Endothelial cells (SK HEP-1 and BRCE); experiment: Migration assay (colloidal gold track area); format: cell-based; conditions: endothelial cells, 18 h
Experimental: The method used was basically as described by Albrecht-Buehler (1977). Briefly, coverslips (22×22 mm) were treated in 5% detergent (7×; ICN Biomedicals) and washed in alcohol to remove grease. After drying, they were immersed in gelatin solution (Sigma, 300 Bloom; 0.5 g in 300 ml distilled H2O) for 10 min. The coverslips were then dried by placing in a 70° C. oven for 45 min.
Colloidal gold suspension was prepared by adding 11 ml distilled H2O and 6 ml Na2CO3 (36.5 mM) to 1.8 ml AuHCl4 (14.5 mM). The mixture was heated to 95° C. at which point 1.8 ml of freshly prepared 0.1% formaldehyde solution was added; the temperature was maintained at 95° C. A suspension of colloidal gold was formed which was brown to absorbed light and blue to transmitted light.
The gold suspension, was then added to petri dishes containing individual coverslips and the plates incubated at 37° C. for 45 min. After washing with CFS (3×4 ml) to remove unattached gold particles, the coverslips were transferred to 6-well cluster dishes and UV sterilised.
Endothelial cells (SK HEP-1 and BRCE) in culture media (0.3 ml) were seeded onto the coverslips at an approximate density of 5×10^3 cells per well. The cells were allowed to plate down for 2 h at 37° C. after which the treatments were added. Assay systems were maintained for a further 18 h after which the cells were fixed using 3% gluteraldehyde in cacodylate buffer (pH 7.2).
The assays were examined using a Leica DM1RB phase contrast microscope and Q500MC image analysis system incorporating a JVC TK-1280E colour camera (Leica, Milton Keynes, UK). The track images of at least 30 cells were videocaptured and the area (representing migration response) determined for each. Statistical analysis of these areas was then carried out using Macintosh Instat software to perform both Kruskal-Wallis analysis of variance and Mann-Whitney U-tests in order to compare the treatment groups with controls.

[2] = target: T2, 67 kDa laminin receptor (67-LR) (Homo sapiens, UniProt P08865); experiment: 125I-laminin displacement (competition binding) on T47-D or SK HEP-1 cells; conditions: relative to mEGF(33-42); 0.1 nM 125I-laminin, overnight 4° C.
T2 construct: endogenous in cells; host or cells: T47-D or SK HEP-1 cells (whole-cell suspension)
Experimental: ^125I-laminin was prepared using ^125I-labelled sodium iodide (Amersham, UK) and immobilised chloramine-T (Iodobeads; Pierce, Ill.). Prior to use, the beads were washed with 500 μl phosphate buffer (pH 6.5) to remove excess reagent from the support. These were then allowed to air dry and individual beads added to a solution of carrier free Na^125I, diluted with iodination buffer (phosphate buffer pH 7.4). The beads were allowed to equilibrate for 5 min.
Laminin (10 μg in 10 μl) was then diluted into the iodination buffer and the system incubated at 20° C. for 15 min. The solution was then removed from the reaction vessel and excess Na^125I and unincorporated ^125I2 separated from the iodinated protein by gel filtration on a GF-5 exclusion column (Pierce, Ill.). Iodinated laminin fractions were recovered at a specific activity of approximately 1.2 mCi/mg protein (864 Ci/mmol).
Near confluent cultures of T47-D or SK HEP-1 cells were removed from monolayer with 0.02% EGTA and passed through a G-25 syringe needle to produce single cell suspensions. Aliquots of each cell type (10^6 cells/ml) were dispensed into separate Ependorf tubes (1 ml each) and pelleted. The cells were then resuspended in 1 ml ice-cold RPMI (SK HEP-1) or DMEM (T47-D) containing 0.1% BSA and either laminin or synthetic peptide at the concentrations indicated. Iodinated laminin was then added to each cell suspension to give a final ^125I-laminin concentration of 0.1 nM (approximately 50,000 cpm). These mixtures were incubated overnight at 4° C.
The tubes were then microfuged at 10,000 g and the supernatant removed. After washing the pellet with 500 μl CFS, the remaining radioactivity was determined using a gamma radiation counter. Non-specific binding was determined by incubating cells with a 1000-fold molar excess of unlabelled laminin. All estimations were carried out in triplicate.
(§1) IC50 (concentration of unlabelled peptide required to produce 50% inhibition of radioligand binding) and EC50 (effective concentration for 50% inhibition of cell attachment) values were calculated using the Grafit curve-fitting programme (Erithacus Software, London, UK).

[3] = system: cell attachment to laminin through the 67-LR (T-47D, SK HEP-1); experiment: Laminin attachment assay; format: cell-based, human; conditions: relative to mEGF(33-42)
Experimental: Non-tissue culture grade 96-well plates, coated with 2.5 μg murine laminin in 50 μl CFS per well, were air-dried overnight at room temperature. […] After rinsing with CFS (100 μl), the plastic was saturated with casein (0.2% in CFS). Plates were incubated at room temperature for 45 min then washed extensively with CFS (3×100 μl).
After removal of culture media, cells were detached from monolayers by the action of EGTA (0.02% in CFS) at 37° C. The cells were then centrifuged at 800 g for 2 min and the pellet resuspended in DMEM (T-47D) or RPMI (SK HEP-1).
Cells, at a population density of 10^6 cells/ml, were then aliquoted (1 ml) into microfuge tubes containing the individual peptide sequences and incubated for 1 h at 37° C. The cells (100 μl aliquots) were then added to the pre-coated multi-well plates and incubated for a further 60 min. Incubation media were removed and the wells washed with CFS (3×100 μl) to rid the plates of non-adherent cells.
Attached cell numbers were evaluated spectrophotometrically at 620 nm after fixing with 10% formaldehyde and staining with crystal violet.
as §1

trypsin-like proteases = experiment: Resistance to trypsin degradation; format: in vitro ADME
[4] = system: Endothelial cells (SK HEP-1 and BRCE); conditions: shown previously; cited from earlier work
67 kDa laminin receptor = target: T3, 67 kDa laminin receptor (Homo sapiens, UniProt P08865); experiment: Cell attachment to biotinylated mEGF(33-42) with anti-laminin receptor or anti-EGF receptor antibodies; format: cell-based
T3 construct: endogenous in cells
Experimental: Briefly, 96-well plates were coated with 100 μl/well streptavidin (5 μg/ml in carbonate buffer pH 9.6) and following an overnight incubation at 37° C., wells were washed with CFS (3×100 μl) and the plastic blocked with casein (0.2% in CFS). The plates were then incubated at room temperature for 45 min and washed with CFS as previously detailed. Biotinylated mEGF(33-42) in CFS was then aliquoted into the wells (0.1 ml of 100 μM) and the plates incubated for 3 h at 37° C.
After a further block with 0.2% casein, the wells were washed with CFS (3×100 μl aliquots). Plates were kept at 4° C. and used within 2 h.
Cells were prepared as above and pre-incubated for 1 h at 37° C. with serial dilutions of anti-laminin receptor polyclonal (see below) or anti-EGF (R1) receptor monoclonal antibodies. Subsequent procedures were as detailed for the laminin attachment assay.

[5] = system: angiogenesis in the chick; conditions: shown previously; cited from earlier work
[6] = system: angiogenesis in the chick; experiment: Chick angiogenesis model; format: in vivo; conditions: laminin-stimulated; model not stated at the place (Nelson et al 1995)

Molecule	migration (motility) response: laminin agonist or antagonist [1]	receptor affinity, 125I-laminin displacement (IC50), in words [2]	inhibition of cell attachment (adhesion) to laminin (EC50), in words [3]	further results
peptide III: mEGF(33-42) analogue with both isoleucine (P6) for serine and serine (P8) for aspartate (CVIGYIGSRC)				biological function (receptor binding, adhesion, motility) (67-LR): complete loss of biological function
CVIGYSGDRA [peptide IX, alanine scan of mEGF(33-42): alanine for cysteine at P10]	has the agonism of Lam.β-1(925-933)	retains both receptor binding and adhesion displacing activities	retains both receptor binding and adhesion displacing activities	
peptide V: mEGF(33-42) analogue, tyrosine (P5) substituted with Tic-OH (CVIG[Tic‑OH]SGDRC; cysteine pairing not given here)	agonist	both receptor binding and adhesion responses were retained	both receptor binding and adhesion responses were retained	
laminin		equipotent		
mEGF(33-42) analogue, isoleucine (P6) for serine; acetyl-Cys(ACM)-Val-Ile-Gly-Tyr-Ile-Gly-Asp-Arg-Cys(ACM)-NH2 (Ac-C(Acm)VIGYIGDRC(Acm)-NH2; SMILES CC[C@H](C)[C@H](NC(=O)[C@H](Cc1ccc(O)cc1)NC(=O)CNC(=O)[C@@H](NC(=O)[C@@H](NC(=O)[C@H](CSCNC(C)=O)NC(C)=O)C(C)C)[C@@H](C)CC)C(=O)NCC(=O)N[C@@H](CC(=O)O)C(=O)N[C@@H](CCCNC(=N)N)C(=O)N[C@@H](CSCNC(C)=O)C(N)=O) [peptide I]	weak antagonist activities	reduced receptor affinity	both reduced receptor affinity and potency in displacement of cell adhesion to laminin	
CC[C@H](C)[C@H](NC(=O)[C@@H](NC(=O)[C@H](CSCNC(C)=O)NC(C)=O)C(C)C)C(=O)NCC(=O)N[C@@H](Cc1ccc(O)cc1)C(=O)N[C@@H](CO)C(=O)NCC(=O)N[C@@H](CC(=O)O)C(=O)N[C@@H](CCCNC(N)=O)C(=O)N[C@@H](CSCNC(C)=O)C(N)=O [peptide IV, AcC(Acm)-VIGYSGD-[Cit]-C-(Acm)-NH2] (Ac-C(Acm)VIGYSGD[Cit]C(Acm)-NH2)		increased both receptor binding and inhibition of attachment to laminin substrata		resistance to trypsin / trypsin-like proteases (trypsin-like proteases): resistant to cleavage by trypsin-like proteases
AVIGYSGDRC [peptide VIII, alanine scan of mEGF(33-42): alanine for cysteine (P1)]	weak laminin agonist	dramatic decrease in receptor affinity	parallel decrease in their ability to block adhesion to laminin	
CVIGYAGDRC [X, alanine scan of mEGF(33-42): Ala for Ser (P6)]		dramatic decrease in receptor affinity	parallel decrease in their ability to block adhesion to laminin	
CAIGYSGDRC [peptide VII, alanine scan of mEGF(33-42): Ala for Val]		dramatic decrease in receptor affinity	parallel decrease in their ability to block adhesion to laminin	
Acetyl-C-[S-Acm]-VIGYSGDR-C-[S-Acm]NH2 (Ac-C(Acm)VIGYSGDRC(Acm)-NH2) [mEGF(33-42), capped synthetic peptide of residues 33 to 42 of murine epidermal growth factor, 67LR antagonist]	antagonist	equipotent		basal and EGF-stimulated motility of primary and established endothelial cells [4]: blocking the basal and EGF-stimulated motility; receptor that mediates the anti-angiogenic effects (67 kDa laminin receptor; 67-LR versus EGF receptor): mediated solely through the high affinity 67 kDa laminin receptor (67-LR) and not through the EGF receptor; binding to the 67 kDa laminin receptor (67 kDa laminin receptor; biotinylated derivative of the peptide on streptavidin plates): bound to the 67 kDa laminin receptor; EGF-stimulated angiogenic response in the early chick [5]: inhibit the EGF-stimulated angiogenic response; angiogenic effects of laminin [6]: inhibits the angiogenic effects of laminin
CVAGYSGDRC [peptide VI, alanine scan of mEGF(33-42): Ala for Ile]		dramatic decrease in receptor affinity	parallel decrease in their ability to block adhesion to laminin	
peptide II: mEGF(33-42) analogue, aspartate (P8) replaced with serine (CVIGYSGSRC)				biological function (receptor binding, adhesion, motility) (67-LR): complete loss of biological function
